# Target: T1, GlyT1 (Homo sapiens, UniProt P48067)
# T1 construct: expressed in transfected cells
# T1 sequence (P48067 1-706): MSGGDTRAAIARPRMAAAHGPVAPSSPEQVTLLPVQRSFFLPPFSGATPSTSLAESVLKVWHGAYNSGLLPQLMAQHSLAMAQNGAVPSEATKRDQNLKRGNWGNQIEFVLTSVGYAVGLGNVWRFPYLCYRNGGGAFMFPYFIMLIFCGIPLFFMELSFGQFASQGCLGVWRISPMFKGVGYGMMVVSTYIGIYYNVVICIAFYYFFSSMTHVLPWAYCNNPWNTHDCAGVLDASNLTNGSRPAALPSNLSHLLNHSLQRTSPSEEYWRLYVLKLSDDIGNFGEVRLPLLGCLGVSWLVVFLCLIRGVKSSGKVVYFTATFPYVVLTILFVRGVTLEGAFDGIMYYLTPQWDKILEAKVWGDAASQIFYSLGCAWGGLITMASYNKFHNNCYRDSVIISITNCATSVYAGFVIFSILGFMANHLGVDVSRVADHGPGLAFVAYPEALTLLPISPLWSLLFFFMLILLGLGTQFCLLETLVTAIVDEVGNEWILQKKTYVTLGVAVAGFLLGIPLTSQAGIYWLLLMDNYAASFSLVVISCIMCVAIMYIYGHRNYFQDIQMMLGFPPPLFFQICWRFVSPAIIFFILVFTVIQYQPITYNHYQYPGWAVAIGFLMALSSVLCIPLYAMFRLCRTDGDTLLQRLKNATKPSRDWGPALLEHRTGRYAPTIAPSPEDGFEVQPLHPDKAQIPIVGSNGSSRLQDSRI
# Assay: Glycine Transporter 1 (GlyT1) uptake assay, scintillation proximity assay of [14C]-glycine uptake
# Format: cell-based
# Settings: [14C]-glycine uptake; read-out: GlyT1 (pIC50) (converted)
# Method: Glycine Transporter 1 (GlyT1) Uptake Assay
# HEK293 cells stably expressing hGlyT1c were plated onto 96-well Cytostar plates at a density of 4.5×10^4 cells per well in 100 μL of growth media (DMEM containing 10% fetal bovine serum) and incubated overnight in a 37° C., 10% CO2 incubator. The following day, stock compounds in 10 mM DMSO were serially diluted in DMSO, and 2× compound solutions were prepared by diluting compound again (1:100) in HBSS. […] Plates were then read on a MicroBeta plate counter (Perkin Elmer). Dose-response data for tested compounds were analyzed and curves were fit using a four parameter logistic fit to determine IC50 values. […]
row,Compound,IC50
1,"COc1c(C#N)ccc(O[C@@H](C)C(F)(F)F)c1C(=O)N1CC(c2ccc(F)c(F)c2)C1 [Example 51, 3-[3-(3,4-Difluorophenyl)azetidine-1-carbonyl]-2-methoxy-4-{[(2S)-1,1,1-trifluoropropan-2-yl]oxy}benzonitrile]",1000 to 10000 nM
2,"COc1c(C#N)ccc(O[C@@H](C)C(F)(F)F)c1C(=O)N1CC(c2ccc(F)cc2)C1 [Example 52, 3-[3-(4-Fluorophenyl)azetidine-1-carbonyl]-2-methoxy-4-{[(2S)-1,1,1-trifluoropropan-2-yl]oxy}benzonitrile]",100 to 1000 nM
3,"COc1c(C#N)ccc(O[C@@H](C)C(F)(F)F)c1C(=O)N1CC(c2cc(F)cc(F)c2)C1 [Example 53, 3-[3-(3,5-Difluorophenyl)azetidine-1-carbonyl]-2-methoxy-4-{[(2S)-1,1,1-trifluoropropan-2-yl]oxy}benzonitrile]",100 to 1000 nM
4,"C[C@H](Oc1ccc(C#N)c(Cl)c1C(=O)N1CC(c2ccccc2)C1)C(F)(F)F [Example 54, 2-Chloro-3-(3-phenylazetidine-1-carbonyl)-4-{[(2S)-1,1,1-trifluoropropan-2-yl]oxy}benzonitrile]",100 to 1000 nM
5,"C[C@H](Oc1ccc(C#N)c(Cl)c1C(=O)N1CC(c2ccc(F)c(F)c2)C1)C(F)(F)F [Example 55, 2-Chloro-3-[3-(3,4-difluorophenyl)azetidine-1-carbonyl]-4-{[(2S)-1,1,1-trifluoropropan-2-yl]oxy}benzonitrile]",100 to 1000 nM
6,"C[C@H](Oc1ccc(C#N)c(Cl)c1C(=O)N1CC(c2ccc(F)cc2)C1)C(F)(F)F [Example 56, 2-Chloro-3-[3-(4-fluorophenyl)azetidine-1-carbonyl]-4-{[(2S)-1,1,1-trifluoropropan-2-yl]oxy}benzonitrile]",100 to 1000 nM
7,"C[C@H](Oc1ccc(C#N)c(Cl)c1C(=O)N1CC(c2cc(F)cc(F)c2)C1)C(F)(F)F [Example 57, 2-Chloro-3-[3-(3,5-difluorophenyl)azetidine-1-carbonyl]-4-{[(2S)-1,1,1-trifluoropropan-2-yl]oxy}benzonitrile]",100 to 1000 nM
8,"COc1c(S(C)(=O)=O)ccc(O[C@@H](C)C(F)(F)F)c1C(=O)N1CC(Oc2ccc(F)cc2C)C1 [Example 58, 3-(4-Fluoro-2-methylphenoxy)-1-(3-methanesulfonyl-2-methoxy-6-{[(2S)-1,1,1-trifluoropropan-2-yl]oxy}benzoyl)azetidine]",< 100 nM
9,"COc1c(S(C)(=O)=O)ccc(O[C@@H](C)C(F)(F)F)c1C(=O)N1CC(Oc2c(F)cc(F)cc2F)C1 [Example 59, 1-(3-Methanesulfonyl-2-methoxy-6-{[(2S)-1,1,1-trifluoropropan-2-yl]oxy}benzoyl)-3-(2,4,6-trifluorophenoxy)azetidine]",< 100 nM
10,"COc1c(S(C)(=O)=O)ccc(O[C@@H](C)C(F)(F)F)c1C(=O)N1CC(Oc2cc(F)c(F)cc2F)C1 [Example 60, 1-(3-Methanesulfonyl-2-methoxy-6-{[(2S)-1,1,1-trifluoropropan-2-yl]oxy}benzoyl)-3-(2,4,5-trifluorophenoxy)azetidine]",100 to 1000 nM
11,"COc1c(S(C)(=O)=O)ccc(O[C@@H](C)C(F)(F)F)c1C(=O)N1CC(Oc2ccc(C(F)(F)F)cn2)C1 [Example 61, 2-{[1-(3-Methanesulfonyl-2-methoxy-6-{[(2S)-1,1,1-trifluoropropan-2-yl]oxy}benzoyl)azetidin-3-yl]oxy}-5-(trifluoromethyl)pyridine]",100 to 1000 nM
12,"COc1c(S(C)(=O)=O)ccc(O[C@@H](C)C(F)(F)F)c1C(=O)N1CC(Oc2ccncc2)C1 [Example 62, 4-{[1-(3-Methanesulfonyl-2-methoxy-6-{[(2S)-1,1,1-trifluoropropan-2-yl]oxy}benzoyl)azetidin-3-yl]oxy}pyridine]",100 to 1000 nM
13,"CC(Oc1ccc(C#N)c(Cl)c1C(=O)N1CC(c2ccc(C(F)(F)F)cc2)C1)C(F)(F)F (stereo not shown) [Example 63, 2-Chloro-3-({3-[4-(trifluoromethyl)phenyl]azetidin-1-yl}carbonyl)-4-[(1,1,1-trifluoropropan-2-yl)oxy]benzonitrile]",100 to 1000 nM

# Reference: patent publication US10040759B2, “Substituted azetidinyl compounds as GlyT1 inhibitors” (DART NEUROSCIENCE (CAYMAN) LTD., priority 2014, dated 2018)
